Tests used:
Format in all cases: ADME
[1] = The drug is tested on the gut metagenome community of T-02 with ENA study accession number: PRJEB31790 for biotransformation under microaerobic condition. The drug concentrations were measured over 7 timepoints collected between 0 and 12 hours of incubation by liquid-chromatography-coupled mass spectrometry (LC–MS); parameters: dose 5 uM, timepoint 0, 0.75, 1.5, 3, 6, 9, 12 hours; details: 5 µM
[2] = The drug is tested on the gut metagenome community of A-05 with ENA study accession number: PRJEB31790 for biotransformation under microaerobic condition. The drug concentrations were measured over 7 timepoints collected between 0 and 12 hours of incubation by liquid-chromatography-coupled mass spectrometry (LC–MS); parameters: dose 5 uM, timepoint 0, 0.75, 1.5, 3, 6, 9, 12 hours; details: 5 µM
[3] = The drug is tested on Streptococcus salivarius strain: DSM20560 for biotransformation under anaerobic condition. The drug concentrations were measured over 6 timepoints collected between 0 and 12 hours of incubation by liquid-chromatography-coupled mass spectrometry (LC–MS); parameters: dose 5 uM, timepoint 0, 1.5, 3, 6, 9, 12 hours; details: 5 µM
[4] = The drug is tested on Streptococcus anginosus strain: DSM20563 for biotransformation under microaerobic condition. The drug concentrations were measured over 6 timepoints collected between 0 and 12 hours of incubation by liquid-chromatography-coupled mass spectrometry (LC–MS); parameters: dose 5 uM, timepoint 0, 1.5, 3, 6, 9, 12 hours; details: 5 µM
[5] = The drug is tested on the gut metagenome community of T-04 with ENA study accession number: PRJEB31790 for biotransformation under microaerobic condition. The drug concentrations were measured over 7 timepoints collected between 0 and 12 hours of incubation by liquid-chromatography-coupled mass spectrometry (LC–MS); parameters: dose 5 uM, timepoint 0, 0.75, 1.5, 3, 6, 9, 12 hours; details: 5 µM
[6] = The drug is tested on Bifidobacterium longum strain: DSM20088 for biotransformation under microaerobic condition. The drug concentrations were measured over 6 timepoints collected between 0 and 12 hours of incubation by liquid-chromatography-coupled mass spectrometry (LC–MS); parameters: dose 5 uM, timepoint 0, 1.5, 3, 6, 9, 12 hours; details: 5 µM
[7] = The drug is tested on the gut metagenome community of P-04 with ENA study accession number: PRJEB31790 for biotransformation under microaerobic condition. The drug concentrations were measured over 7 timepoints collected between 0 and 12 hours of incubation by liquid-chromatography-coupled mass spectrometry (LC–MS); parameters: dose 5 uM, timepoint 0, 0.75, 1.5, 3, 6, 9, 12 hours; details: 5 µM
[8] = The drug is tested on Streptococcus salivarius strain: DSM20560 for biotransformation under microaerobic condition. The drug concentrations were measured over 6 timepoints collected between 0 and 12 hours of incubation by liquid-chromatography-coupled mass spectrometry (LC–MS); parameters: dose 5 uM, timepoint 0, 1.5, 3, 6, 9, 12 hours; details: 5 µM
[9] = The drug is tested on the gut metagenome community of T-01 with ENA study accession number: PRJEB31790 for biotransformation under microaerobic condition. The drug concentrations were measured over 7 timepoints collected between 0 and 12 hours of incubation by liquid-chromatography-coupled mass spectrometry (LC–MS); parameters: dose 5 uM, timepoint 0, 0.75, 1.5, 3, 6, 9, 12 hours; details: 5 µM
[10] = The drug is tested on the gut metagenome community of T-03 with ENA study accession number: PRJEB31790 for biotransformation under anaerobic condition. The drug concentrations were measured over 7 timepoints collected between 0 and 12 hours of incubation by liquid-chromatography-coupled mass spectrometry (LC–MS); parameters: dose 5 uM, timepoint 0, 0.75, 1.5, 3, 6, 9, 12 hours; details: 5 µM
[11] = The drug is tested on Gemella haemolysans strain: DSM107751 for biotransformation under anaerobic condition. The drug concentrations were measured over 6 timepoints collected between 0 and 12 hours of incubation by liquid-chromatography-coupled mass spectrometry (LC–MS); parameters: dose 5 uM, timepoint 0, 1.5, 3, 6, 9, 12 hours; details: 5 µM
[12] = The drug is tested on the gut metagenome community of A-02 with ENA study accession number: PRJEB31790 for biotransformation under microaerobic condition. The drug concentrations were measured over 7 timepoints collected between 0 and 12 hours of incubation by liquid-chromatography-coupled mass spectrometry (LC–MS); parameters: dose 5 uM, timepoint 0, 0.75, 1.5, 3, 6, 9, 12 hours; details: 5 µM
[13] = The drug is tested on Escherichia coli strain: DSM27469 for biotransformation under microaerobic condition. The drug concentrations were measured over 6 timepoints collected between 0 and 12 hours of incubation by liquid-chromatography-coupled mass spectrometry (LC–MS); parameters: dose 5 uM, timepoint 0, 1.5, 3, 6, 9, 12 hours; details: 5 µM
[14] = The drug is tested on the gut metagenome community of A-06 with ENA study accession number: PRJEB31790 for biotransformation under anaerobic condition. The drug concentrations were measured over 7 timepoints collected between 0 and 12 hours of incubation by liquid-chromatography-coupled mass spectrometry (LC–MS); parameters: dose 5 uM, timepoint 0, 0.75, 1.5, 3, 6, 9, 12 hours; details: 5 µM
[15] = The drug is tested on the gut metagenome community of T-04 with ENA study accession number: PRJEB31790 for biotransformation under anaerobic condition. The drug concentrations were measured over 7 timepoints collected between 0 and 12 hours of incubation by liquid-chromatography-coupled mass spectrometry (LC–MS); parameters: dose 5 uM, timepoint 0, 0.75, 1.5, 3, 6, 9, 12 hours; details: 5 µM
[16] = The drug is tested on Escherichia coli strain: DSM27469 for biotransformation under anaerobic condition. The drug concentrations were measured over 6 timepoints collected between 0 and 12 hours of incubation by liquid-chromatography-coupled mass spectrometry (LC–MS); parameters: dose 5 uM, timepoint 0, 1.5, 3, 6, 9, 12 hours; details: 5 µM
[17] = The drug is tested on Lactobacillus reuteri strain: DSM20016 for biotransformation under anaerobic condition. The drug concentrations were measured over 6 timepoints collected between 0 and 12 hours of incubation by liquid-chromatography-coupled mass spectrometry (LC–MS); parameters: dose 5 uM, timepoint 0, 1.5, 3, 6, 9, 12 hours; details: limosilactobacillus reuteri, 5 µM
[18] = The drug is tested on Streptococcus sanguinis strain: DSM20567 for biotransformation under microaerobic condition. The drug concentrations were measured over 6 timepoints collected between 0 and 12 hours of incubation by liquid-chromatography-coupled mass spectrometry (LC–MS); parameters: dose 5 uM, timepoint 0, 1.5, 3, 6, 9, 12 hours; details: 5 µM
[19] = The drug is tested on the gut metagenome community of T-02 with ENA study accession number: PRJEB31790 for biotransformation under anaerobic condition. The drug concentrations were measured over 7 timepoints collected between 0 and 12 hours of incubation by liquid-chromatography-coupled mass spectrometry (LC–MS); parameters: dose 5 uM, timepoint 0, 0.75, 1.5, 3, 6, 9, 12 hours; details: 5 µM
[20] = The drug is tested on the gut metagenome community of T-03 with ENA study accession number: PRJEB31790 for biotransformation under microaerobic condition. The drug concentrations were measured over 7 timepoints collected between 0 and 12 hours of incubation by liquid-chromatography-coupled mass spectrometry (LC–MS); parameters: dose 5 uM, timepoint 0, 0.75, 1.5, 3, 6, 9, 12 hours; details: 5 µM
[21] = The drug is tested on Capnocytophaga ochracea strain: DSM7271 for biotransformation under anaerobic condition. The drug concentrations were measured over 6 timepoints collected between 0 and 12 hours of incubation by liquid-chromatography-coupled mass spectrometry (LC–MS); parameters: dose 5 uM, timepoint 0, 1.5, 3, 6, 9, 12 hours; details: 5 µM
[22] = The drug is tested on the gut metagenome community of P-02 with ENA study accession number: PRJEB31790 for biotransformation under microaerobic condition. The drug concentrations were measured over 7 timepoints collected between 0 and 12 hours of incubation by liquid-chromatography-coupled mass spectrometry (LC–MS); parameters: dose 5 uM, timepoint 0, 0.75, 1.5, 3, 6, 9, 12 hours; details: 5 µM
[23] = The drug is tested on Lactobacillus paracasei strain: ATCC27092 for biotransformation under microaerobic condition. The drug concentrations were measured over 6 timepoints collected between 0 and 12 hours of incubation by liquid-chromatography-coupled mass spectrometry (LC–MS); parameters: dose 5 uM, timepoint 0, 1.5, 3, 6, 9, 12 hours; details: lacticaseibacillus paracasei, 5 µM
[24] = The drug is tested on Lactobacillus reuteri strain: DSM20016 for biotransformation under microaerobic condition. The drug concentrations were measured over 6 timepoints collected between 0 and 12 hours of incubation by liquid-chromatography-coupled mass spectrometry (LC–MS); parameters: dose 5 uM, timepoint 0, 1.5, 3, 6, 9, 12 hours; details: limosilactobacillus reuteri, 5 µM
[25] = The drug is tested on Roseburia intestinalis strain: DSM14610 for biotransformation under anaerobic condition. The drug concentrations were measured over 6 timepoints collected between 0 and 12 hours of incubation by liquid-chromatography-coupled mass spectrometry (LC–MS); parameters: dose 5 uM, timepoint 0, 1.5, 3, 6, 9, 12 hours; details: 5 µM

Measured: Bacterial Biotransformation

CCOc1nc2cccc(C(=O)O)c2n1Cc1ccc(-c2ccccc2-c2nnn[nH]2)cc1
Compound NOT metabolized: [1] | [2] | [3] | [4] | [5] | [6] | [7] | [8] | [9] | [10] | [11] | [12] | [13] | [14] | [15] | [16] | [17] | [18] | [19] | [20] | [21] | [22] | [23] | [24] | [25]

CCOC(=O)[C@H](CCc1ccccc1)N[C@@H](C)C(=O)N1[C@H](C(=O)O)C[C@@H]2CCC[C@@H]21
Compound metabolized: [8]
Compound NOT metabolized: [1] | [2] | [3] | [4] | [5] | [6] | [7] | [9] | [10] | [11] | [12] | [13] | [14] | [15] | [16] | [17] | [18] | [19] | [20] | [21] | [22] | [23] | [24] | [25]

C[C@@H](NCCCc1cccc(C(F)(F)F)c1)c1cccc2ccccc12
Compound metabolized: [9]
Compound NOT metabolized: [1] | [2] | [3] | [4] | [5] | [6] | [7] | [8] | [10] | [11] | [12] | [13] | [14] | [15] | [16] | [17] | [18] | [19] | [20] | [21] | [22] | [23] | [24] | [25]
